Measurements: US20230027072A1, “IMPROVED METHODS, KITS, COMPOSITIONS AND DOSING REGIMENS FOR THE USE OF HETEROCYCLIC INHIBITORS OF ERK1 AND ERK2” (Asana Biosciences, LLC, priority 2019, published 2023)
pIC50: −log10 of the molar value. Where two headings read alike, the source gives them in different places.

Tests used:
ERK2 = molecular target: T1, ERK2 (Homo sapiens, UniProt P28482); experiment: ERK2 HTRF (biochemical) assay
T1 construct: purchased Jubilant Biosys
Protocol: (§1) ERK1 and ERK2 HTRF (Biochemical) Assays
(§2) The assays described below employed a homogeneous time resolved fluorescence (HTRF) technique. The compounds were serially diluted by half-log with concentrations ranging from 0.0005 to 10 uM in the assay buffer (50 mM Tris pH-7.5, 1 mM EGTA, 2 mM DTT, 10 mM MgCl2, 0.1% Tween-20) and 20 uL of substrate-ATP mix [1 uM Biotin—LC-Myelin Basic Protein (MBP) derivatized Peptide (Anaspec)-24 uM ATP (Sigma)] was added to each well of the assay plate. Then 10 uL of enzyme mix [25 nM ERK1 or ERK2 (Jubilant Biosys) in assay buffer] was added to each well. The plate was incubated at room temperature for 60 min with shaking. The HTRF mix [625 nM LANCE® Ultra Europium-anti-phospho-MBP (Perkin Elmer) and 2 nM Phycolink® Streptavidin-Allophycocyanin (SA-APC) (Prozyme) in HTRF buffer (50 mM Tris-HCl pH-7.5, 100 mM NaCl, 0.1% BSA, 0.05% Tween20, 0.5 mM EDTA)] was prepared and 75 uL of this mix was added to the HTRF plate. After incubation for 60 min at room temperature, 10 uL of the reaction mixture was transferred to the HTRF assay plate and incubated for 45 min at room temperature with shaking. Plate was read using Pherastar in HTRF mode (excitation 337 nm, emission 665 & 620 nm). The IC50 values (half maximal inhibitory concentration values) were subsequently determined using a sigmoidal dose-response curve (variable slope) in GraphPad Prism® 5 software.

ERK1 = molecular target: T2, ERK1 (Homo sapiens, UniProt P27361); experiment: ERK1 HTRF (biochemical) assay
T2 construct: purchased Jubilant Biosys
Protocol: as §1, §2

[1] = test system: phosphorylation of RSK1(S380) (the downstream target of ERK1/2); experiment: Mechanistic (phospho-RSK1(S380) ELISA) assay in HT-29 cells; assay type: cell-based, human; conditions: 2 h treatment, read-out: Mechanistic Cell Assay RSK1 Phos HT29 IC50
Protocol: Mechanistic (Phospho-RSK1(5380) ELISA) Assay
HT-29 cells (colorectal carcinoma, B-RafV600E); obtained from ATCC, USA) were seeded (60,000 cells/well) in a 96-well plate and incubated at 37° C./5% CO2 overnight and then treated with desired compound dilutions for 2 h. Medium was removed and cells were rinsed once with ice-cold 1×PBS, then 0.070 mL ice-cold 1× cell lysis buffer containing 1 mM PMSF was added to each well and the plate was incubated on a shaker for 2 h and 30 min at 4° C. The plate was then centrifuged for 20 min (×4000 rpm) at 4° C. and the supernatant was transferred to a new plate. Cell lysates were diluted with sample diluent at a ratio of 1:1. The ELISA was then carried out following the manufacturer's protocol (PathScan® phospho-RSK1(Ser380) Sandwich ELISA Kit, Cell Signaling Technologies). The plate was read at 450 nm within 30 min after adding STOP solution. The IC50 values were subsequently determined using a sigmoidal dose-response curve (variable slope) in GraphPad Prism® 5 software. Compounds of the present disclosure inhibited phosphorylation of RSK1(5380) (the downstream target of ERK1/2) as determined in this assay.

[2] = test system: HT-29 (colorectal carcinoma, B-RafV600E) cells; experiment: Cell proliferation (Alamar Blue) assay, HT-29; assay type: cell-based, human; conditions: read-out: Cell Proliferation Assay HT29 IC50
Protocol: (§3) Cell Proliferation (Alamar Blue) Assay
(§4) HT-29 (colorectal carcinoma, B-RafV600E), HCT116 (colorectal carcinoma, K Ras G13D), A375 (melanoma, B-RafV600E) and SK-Mel2 (melanoma, NRAS Q61R) cells (obtained from ATCC, USA) were seeded (5000 cells/well) in 96-well tissue culture plate and incubated at 37° C./5% CO2 for 16-24 hours. The cells were then treated with compounds, at concentrations typically from 0.0005 to 10 uM prepared in 3-fold serial dilutions. The plates were then incubated for 72 h at 37° C./5% CO2 in a moist environment. Then Alamar Blue™ reagent (final concentration 1×) was added to each well and incubated for 1-3 h at 37° C./5% CO2. The plates were read on fluorescence reader at 540 nm excitation and 590 nm emission wavelengths. The IC50 values were subsequently determined using a sigmoidal dose-response curve (variable slope) using GraphPad Prism® 5 software. Compounds of the present disclosure caused inhibition of HT-29, HCT116, A375 and SK-Mel2 cell proliferation as determined in these assays.

[3] = test system: HCT116 (colorectal carcinoma, K Ras G13D) cells; experiment: Cell proliferation (Alamar Blue) assay, HCT116; assay type: cell-based, human
Protocol: as §3, §4

[4] = Phase 1 clinical study, pharmacokinetics (Example 39); assay type: in vivo; conditions: human; for AUC / Cmax: plasma, oral, Day 15; for AUC: read-out: AUCtau, mean (CV %); for Cmax: read-out: Cmax, mean (CV %)
Excerpt: This human clinical study is designed to determine the maximum tolerated dose of the compound of Example 349 [S)—N-(2-Amino-1-(3-chloro-5-fluorophenyl)ethyl)-1-(5-methyl-2-((tetrahydro-2H-pyran-4-yl)amino)pyrimidin-4-yl)-1H-imidazole-4-carboxamide mandelic acid salt] and evaluate its safety, tolerability, pharmacokinetics and pharmacodynamics. This study is an open-label, non-randomized uncontrolled, multicenter, dose escalation, and cohort expansion study in subjects with histologically or cytologically confirmed advanced solid tumors for which no standard therapy exists. The compound of Example 349 was formulated as described in Example 35 above for administration to the study subjects.
Daily dosing: This part of the study was conducted using an accelerated titration design in which patients were dosed once daily in cycles of 3 weeks. The accelerated phase of the study included single-patient cohorts and escalation increases of 100% up to 80 mg/day dose cohorts in the absence of DLTs or ≥Grade 2 drug-related toxicity. In the absence of any DLTs or ≥Grade 2 drug-related toxicity, the conventional 3+3 design commenced at 80 mg/day dose level.
Weekly dosing: Once weekly dosing of subject in 3+3 escalating dose cohorts was explored as warranted by the emerging pharmacokinetics and clinical trial experience. Once weekly dose escalation increments were up to 50%, based on the absence of DLTs or ≥Grade 2 drug-related toxicity and the available tablet strengths. Initiation of escalating daily and weekly higher dose levels occurred only following safety data review and agreement by the Safety Review Committee.
Part A included and Part B will include a screening period (up to 21 days) and an estimated treatment period for up to 12 months. […] At the end of treatment, a post-treatment period of 4 weeks will commence that concludes with an end-of-study visit.
The pharmacokinetics of the compound of Example 349 was evaluated in the study subjects with solid tumors following once-daily oral administration at 10-80 mg or QW administration at 80-350 mg. […] With once-daily dosing, the accumulation in Cmax and AUCtau were approximately 2-fold based on the 40 mg data. With once-weekly administration, drug accumulation in plasma was minimal. […] Results of these pharmacokinetic studies are further illustrated in FIGS. 6 and 7, which show the plasma concentration-time profiles for the QD and QW regimens. FIGS. 6A and 6B show the plasma concentration over time for the compound of Example 349 measured on day 1 and day 15 for daily dosing at 10 mg/kg, 20 mg/kg, 40 mg/kg, 60 mg/kg and 80 mg/kg. […] FIGS. 7A and 7B show the plasma concentration over time for the compound of Example 349 measured on day 1 and day 15 for weekly dosing at 80 mg/kg, 120 mg/kg, 180 mg/kg, 250 mg/kg and 350 mg/kg.

[5] = 40 mg daily (MTD for QD regimen)
[6] = 250 mg weekly (MTD for QW regimen)

T2 sequence (P27361 whole entry): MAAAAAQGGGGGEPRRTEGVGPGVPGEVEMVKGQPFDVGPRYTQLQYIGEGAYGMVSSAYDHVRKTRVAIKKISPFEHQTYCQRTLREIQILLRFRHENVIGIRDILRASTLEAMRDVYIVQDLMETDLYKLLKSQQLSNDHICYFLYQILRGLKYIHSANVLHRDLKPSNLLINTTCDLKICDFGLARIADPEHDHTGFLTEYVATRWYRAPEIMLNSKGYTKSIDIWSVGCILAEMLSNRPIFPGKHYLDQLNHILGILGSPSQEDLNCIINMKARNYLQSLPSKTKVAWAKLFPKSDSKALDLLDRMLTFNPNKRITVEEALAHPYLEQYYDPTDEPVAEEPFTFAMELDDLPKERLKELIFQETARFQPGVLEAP
T1 sequence (P28482 whole entry): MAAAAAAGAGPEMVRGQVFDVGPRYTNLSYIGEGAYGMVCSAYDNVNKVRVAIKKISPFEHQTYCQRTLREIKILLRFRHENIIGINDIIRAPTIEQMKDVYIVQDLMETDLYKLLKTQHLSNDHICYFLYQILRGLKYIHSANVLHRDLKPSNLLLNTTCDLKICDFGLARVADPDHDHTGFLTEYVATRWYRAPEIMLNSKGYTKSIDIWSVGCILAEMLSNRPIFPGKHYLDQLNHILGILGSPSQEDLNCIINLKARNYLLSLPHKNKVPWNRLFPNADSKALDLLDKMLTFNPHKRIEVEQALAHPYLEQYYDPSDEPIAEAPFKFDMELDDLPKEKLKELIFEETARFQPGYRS

Row | Compound | pIC50 (ERK2) | pIC50 (ERK1) | pIC50 ([1]; Homo sapiens, HT-29, 2 h) | pIC50 ([2]; Homo sapiens, HT-29, 72 h) | pIC50 ([3]; Homo sapiens, HCT-116, 72 h) | other results
1 | Cc1cnc(Nc2ccc3c(c2)OC(F)(F)O3)cc1-n1cc(C(=O)NC(CN)Cc2ccccc2)nn1 (stereo not drawn) [Compound 134] | 5.60 to 6.30 | – | – | – | – | –
2 | CC[C@@H](CO)Nc1cc(-n2cnc(C(=O)NC(CO)c3cccc(Cl)c3)c2)ccn1 (stereo partly drawn) [Compound 105, N-(1-(3-chlorophenyl)-2-hydroxyethyl)-1-(2-(((S)-1-hydroxybutan-2-yl)-amino)pyridin-4-yl)-1H-imidazole-4-carboxamide] | ≥ 7.30 | ≥ 7.30 | 6.60 to 7.00 | < 5.60 | < 5.60 | –
3 | Cc1cnc(NC(C)C2CCOCC2)nc1-n1cnc(C(=O)N[C@H](CO)c2cccc(Cl)c2)c1 (stereo partly drawn) [Example 239] | ≥ 7.30 | ≥ 7.30 | 5.60 to 6.30 | – | < 5.60 | –
4 | Cc1cnc(NC2CCOCC2)nc1-n1cnc(C(=O)NC(CN)c2ccc(Cl)s2)c1 (single isomer, unassigned; enantiomer #2) [Example 291, N-(2-amino-1-(5-chlorothiophen-2-yl)ethyl)-1-(5-methyl-2-((tetrahydro-2H-pyran-4-yl)amino)pyrimidin-4-yl)-1H-imidazole-4-carboxamide (enantiomer #2)] | – | – | – | – | – | pIC50 [1]: 6.30 to 6.60; pIC50 ([2]; 72 h): 6.30 to 6.60; pIC50 ([3]; 72 h): 5.60 to 6.30
5 | Cc1cnc(Nc2ccc(Oc3ccccc3)cc2)nc1-n1cnc(C(=O)N[C@H](CO)c2cccc(Cl)c2)c1 [Example 250, N-(1-(3-chlorophenyl)-2-hydroxyethyl)-1-(5-methyl-2-((4-phenoxyphenyl)-amino)pyrimidin-4-yl)-1H-imidazole-4-carboxamide] | 6.30 to 7.00 | 5.60 to 6.30 | – | – | – | –
6 | Cc1cnc(Nc2ccc(F)cc2)cc1-n1cnc(C(=O)NC(CN)c2ccccc2)c1 (single isomer, unassigned) [Example 227, N-(2-amino-1-phenylethyl)-1-(2-((4-fluorophenyl)-amino)-5-methyl-pyridin-4-yl)-1H-imidazole-4-carboxamide] | – | – | – | 6.60 to 7.00 | – | –
7 | Cc1cnc(NC2CCOCC2)nc1-n1cnc(C(=O)N[C@H](CN)c2cc(F)cc(Cl)c2)c1 [Example 349] | – | – | – | – | – | AUCtau values, dependence on dose ([4]; in vivo): dose dependent; Cmax values, dependence on dose ([4]; in vivo): dose dependent; Total CL/F, dependence on dose ([4]; in vivo): independent of dose levels; Vd/F, dependence on dose ([4]; in vivo): independent of dose levels; Tmax ([4]; in vivo, po): 1 to 4 h; half-life ([4]; in vivo, po): ~25 h; AUC [4, 5]: 0.492 µg·h/mL; Cmax [4, 5]: 0.0615 µg/mL; AUC [4, 6]: 5.5 µg·h/mL; Cmax [4, 6]: 0.495 µg/mL
8 | Cc1cnc(Nc2ccc3occc3c2)nc1-n1ccc(C(=O)NC(CO)c2cccc(Cl)c2)c1 (stereo not drawn) [Example 68, 1-(2-(benzofuran-5-ylamino)-5-methylpyrimidin-4-yl)-N-(1-(3-chlorophenyl)-2-hydroxyethyl)-1H-pyrrole-3-carboxamide] | – | – | ≥ 7.00 | 6.60 to 7.00 | 6.60 to 7.00 | –
9 | Cc1cnc(N[C@H]2CCOC2)nc1-n1cnc(C(=O)N[C@H](CN)c2cc(F)cc(Cl)c2)c1 [Example 282, N-(2-amino-1-(3-chloro-5-fluorophenyl)ethyl)-1-(5-methyl-2-(((S)-tetrahydrofuran-3-yl)amino)pyrimidin-4-yl)-1H-imidazole-4-carboxamide] | ≥ 7.30 | ≥ 7.30 | ≥ 7.00 | ≥ 7.00 | ≥ 7.00 | –
10 | Cc1cnc(Nc2ccc(F)cc2)cc1-n1cnc(C(=O)NC(CN)c2ccccc2)c1 (stereo not drawn) [Compound 191, N-(2-amino-1-phenylethyl)-1-(2-((4-fluorophenyl)amino)-5-methylpyridin-4-yl)-1H-imidazole-4-carboxamide] | – | – | – | 6.30 to 6.60 | 5.60 to 6.30 | –
